Laboratory results from patent US7399460B2, “Metal complexes derivatized with folate for use in diagnostic and therapeutic applications” (Bracco International B.V., priority 1998, dated 2008).

How the values were obtained:
[1] = biological target: T1, folate binding protein on the KB cells (Homo sapiens, UniProt P15328); test: Binding of alpha and gamma isomers of ^99mTc-oxa-folate to KB cells at 4° C.; conditions: 30 min; for competition with native folate for folate binding protein on KB cells: plus 250-260 pmol cold native folate, 4° C. (FIG. 4, white bars); for binding to KB cells relative to that observed with 10 pmol of ^3H-folate: trace amounts (~0.5 μCi), 4° C., no cold folate (FIG. 4, dark bars)
T1 construct: host or cells: KB cells
T1 sequence (P15328 25-234): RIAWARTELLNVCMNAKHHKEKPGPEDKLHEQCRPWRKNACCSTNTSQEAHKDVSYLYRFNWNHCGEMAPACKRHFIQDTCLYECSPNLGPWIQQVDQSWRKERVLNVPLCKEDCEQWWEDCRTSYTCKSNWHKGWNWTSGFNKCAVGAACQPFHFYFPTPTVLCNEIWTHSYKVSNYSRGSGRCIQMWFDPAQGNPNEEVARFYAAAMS
Protocol: The ability of the alpha and gamma isomers of ^99mTc-oxa-folate to bind to KB cells was studied at 4° C. KB cells (˜5×10^5 cells/well) were seeded into 35-mm wells and incubated for 48 hours as described in example 17 above. The alpha and gamma isomers of ^99mTc-oxa-folate, were prepared and purified as described in examples 14 and 16. The cells were then cooled to 4° C. for 30 min and incubated with the following mixtures for 30 min at 4° C.: • 1. 10 pmol of ^3H-folate • 2. 10 pmol of ^3H-folate and 250 pmol of native folate • 3. […] Trace amounts (˜0.5 μCi) of ^99mTc-Oxa-γ-folate • 6. Trace amounts (˜0.5 μCi) of ^99mTc-Oxa-γ-folate and 260 pmol of native folate
(§1) Following the incubation period, the cells were washed 3 times with ice-cold Tris-buffered saline. The cells were then stripped from the plates using 1.0 mL of water. Aliquots of the water/cell mixture were assayed for the respective radioisotopes and for cellular protein (to determine the number of KB cells present in each well). The radioassay data were used to calculate the % of radiolabeled compound bound to the cells in the absence and presence of unlabeled native folate. Data in FIG. 4 are presented as the percentage bound, relative to the % bound in the control wells containing 10 pmol of ^3H-folate.

cell surface FBP = cell surface FBP (Homo sapiens, UniProt P15328); conditions: in the presence of an equimolar amount of conjugate; cited from earlier work
cell surface FBP, sequence (P15328 25-234): as above

MA104 cells = conditions: cited from earlier work
JAR tumors = test: Biodistribution at MRI dose level in nude mice with subcutaneous JAR tumors; conditions: 60 min, 79.2 μmol/kg dose
Protocol: Biodistribution studies were performed using female nu/nu mice implanted with subcutaneous JAR tumors using the general procedures described in the example above. Animals were sacrificed 60 min post IV injection of an “MRI” dose level (0.1 mmol/kg) of ^153Gd/Gd-DO3A-APA-(α)-folate, ^153Gd/Gd-DO3A-APA-(γ)-folate or Bis(^153Gd/Gd-DO3A-APA)folate and selected organs were removed, weighed, and assayed for radioactivity, in order to determine the % injected dose/g-tissue (% ID/g) in the tumors.

KB cells = test: In vitro exchange study with cold native folate in the medium, KB cells; assay type: cell-based, human; conditions: 24 hours, 37° C., medium with cold native folate (250 nM), FIG. 4A
Protocol: (§2) Exchange studies were performed to examine the effect of native folate on the radioactivity levels in KB or JAR cells that had been pre-loaded with a saturating level of radiolabeled Gd-folates or native folate in vitro. ^3H-folate, ^153Gd-DO3A-APA-(γ)-folate or ^153Gd-DO3A-APA-(α)-folate (250 pmol) was incubated with KB or JAR cells as described in Example 18. At the end of the 30-min incubation period, these ^153Gd-folate or ^3H-folate-loaded cells were washed five times with ice-cold media containing 250 nM cold, native folate and were then incubated at 37° C. for 24 hours with media that contained 250 pmol of cold folate. At predetermined intervals during this time, the incubation medium was removed and replaced with fresh medium at 37° C. The radioactivity present in each aliquot of the incubation medium was used to determine the rate at which radioactivity from the ^3H-folate, ^153Gd-DO3A-APA-(γ)-folate or ^153Gd-DO3A-APA-(α)-folate washed out of the cells. At the end of the study, the cells were suspended in one ml of water and assayed for radioactivity and protein content.

JAR cells [2] = biological target: T2, JAR cells (Homo sapiens, UniProt P15328); test: In vitro exchange study with cold native folate in the medium, JAR cells; assay type: cell-based
T2 construct: host or cells: JAR cells
T2 sequence (P15328 25-234): as above
Protocol: as §2

[3] = biological target: T3, folate binding protein on KB cells (Homo sapiens, UniProt P15328); test: Binding of ^153Gd-DO3A-APA-folate (α or γ isomer) or ^3H folate to KB cells at 37° C. in competition with cold native folate; conditions: 10 pmol labelled compound, 0-900 pmol cold native folate, 30 min, FIG. 1
T3 construct: host or cells: KB cells
T3 sequence (P15328 25-234): as above
Protocol: (§3) Cell culture: KB cells (a human nasopharyngeal epidermal carcinoma cell line) and JAR cells (a human choriocarcinoma cell line) were obtained from ATCC (American Type Culture Collection). Both cell lines are reported to overexpress transcripts encoding folate binding protein. […] The media for each cell line was supplemented with 10% defined fetal calf serum (HyClone, Inc.) Monolayers were cultured at 37° C. in a humidified atmosphere containing 5% CO2.
(§4) Forty-eight hours prior to each experiment, 5×10^5 cells were seeded into 35 mm culture dishes and allowed to grow for 2 days in folate-depleted media. The cells were then washed with Tris-buffered saline (TBS=150 mM NaCl, 50 mM Tris, pH 7.5) and 1 mL of fresh media containing 10 pmol ^153Gd-DO3A-APA-folate (α or γ isomer) and 0-900 pmol of cold native folate per sample was added. Control experiments were performed using 10 pmol of ^3H folate (Amersham International) and 0-900 pmol of cold native folate. The cells were incubated for 30 min at 37° C. They were then washed three times with ice cold TBS and suspended in one ml of water. Cell associated radioactivity was determined by gamma (^153Gd-folate) or scintillation counting (^3H-folate) of a 500 μl aliquot of this suspension; 100 μl was used in the BCA protein assay (Pierce catalog # 23225), which was used to determine and normalize for cellular protein content.

[4] = biological target: T1, folate binding protein on the KB cells; test: Binding of ^3H-folate and alpha or gamma isomer of ^153Gd-DO3A-APA-folate to KB cells at 4° C. with and without excess folate; conditions: 30 min
Protocol: In a second experiment, the ability of the alpha and gamma isomers of ^153Gd-DO3A-APA-folate to bind to KB cells at 4° C. was studied. KB cells (˜5×10^5 cells/well) were seeded into 35-mm wells and incubated for 48 hours as described above. The cells were then cooled to 4° C. for 30 min and incubated with the following mixtures for 30 min at 4° C.: • 1. 10 pmol of ^3H-folate • 2. 10 pmol of ^3H-folate and 250 pmol of native folate • 3. 10 pmol of ^153Gd/Gd(DO3A-APA-α-folate) • 4. 10 pmol of ^153Gd/Gd(DO3A-APA-α-folate) and 250 pmol of native folate • 5. 10 pmol of ^153Gd/Gd(DO3A-APA-γ-folate) • 6. 10 pmol of ^153Gd/Gd(DO3A-APA-γ-folate) and 250 pmol of native folate
as §1, with “ice-old” for “ice-cold”, “2” for “4”

JAR cells [5] = biological target: T2, JAR cells; test: Binding of ^153Gd-folates or ^3H folate to JAR cells at 37° C.
Protocol: as §3, §4

## 99m-Technetium complex of 12-(N-Pteroyl-α-L-glutamyl)-3,3,9,9-tetramethyl-5-oxa-4,8-diaza-2,10-dodecanedione dioxime [^99mTc-Oxa-α-folate]
[1]
  competition with native folate for folate binding protein on KB cells: do compete for folate binding protein on the KB cells
  binding to KB cells relative to that observed with 10 pmol of ^3H-folate: 140%

## 99m-Technetium complex of 12-(N-Pteroyl-γ-L-glutamyl)-3,3,9,9-tetramethyl-5-oxa-4,8-diaza-2,10-dodecanedione dioxime [^99mTc-Oxa-γ-folate]
[1]
  competition with native folate for folate binding protein on KB cells: do compete for folate binding protein on the KB cells
  binding to KB cells relative to that observed with 10 pmol of ^3H-folate: to the same extent

## CC(=O)N(O)CCCCCNC(=O)CCC(=O)N(O)CCCCCNC(=O)CCC(=O)N(O)CCCCCNC(=O)C(CCC(=O)O)NC(=O)c1ccc(NCc2cnc3nc(N)[nH]c(=O)c3n2)cc1 (single isomer, unassigned) [DF-folate (α) isomer]
Cell surface FBP
  decrease in bound ^3H folic acid: no ability to compete

## CC(=O)N(O)CCCCCNC(=O)CCC(=O)N(O)CCCCCNC(=O)CCC(=O)N(O)CCCCCNC(=O)CCC(NC(=O)c1ccc(NCc2cnc3nc(N)[nH]c(=O)c3n2)cc1)C(=O)O (stereo not drawn) [DF-folate (γ) conjugate]
Cell surface FBP
  decrease in bound ^3H folic acid: 50%

## CC(C)(C)OC(=O)NCCCC(CCCNC(=O)OC(C)(C)C)(CCCNC(=O)OC(C)(C)C)NC(=O)CCC(=O)NC(CCC(=O)OCc1ccccc1)(CCC(=O)OCc1ccccc1)CCC(=O)OCc1ccccc1 [Example 11, N-[1,5-Bis(benzyloxycarbonyl)-3-[2-(benzyloxycarbony)ethyl)]-3-pentyl]-N′-[1,7-bis-(t-butoxycarbony)amino-[4-(3-(t-butyloxycarbonyl)propyl]-4-heptyl]butanedioic diamide]
other
  melting point: 95 to 96 °C

## Nc1nc2ncc(CNc3ccc(C(=O)N[C@@H](CCC(=O)O)C(=O)O)cc3)nc2c(=O)[nH]1 [folic acid]
MA104 cells
  binding by MA104 cells: 1-2 pmol folic acid/10^6 cells

## Bis(^153Gd-DO3A-APA)-folate
JAR tumors
  Tumor % ID/g: 1.48 (0.12) % ID/g
JAR tumors; calculated from % ID/g
  [Gd] in tumor tissue: 55 (4) μM

## Gd-DO3A-APA-(γ)-folate
KB cells
  radioactivity lost from loaded KB cells to the incubation medium: 20%
JAR cells [2]; after 6 hours, 37° C., medium with cold native folate, FIG. 4B
  radioactivity from loaded JAR cells found in the medium: 30%
JAR cells [2]; at 24 hours
  amount of compound washed from the JAR cells: similar

## ^153Gd-DO3A-APA-(γ)-folate
[3]
  amount bound to the KB cells: No significant differences
[4]; 10 pmol plus 250 pmol cold native folate, 4° C. (FIG. 2, white bars)
  competition with native folate for folate binding protein on KB cells: do compete for folate binding protein on the KB cells
[4]; 10 pmol, 4° C., no cold folate (FIG. 2, dark bars)
  binding to KB cells compared with 10 pmol of ^3H-folate: to the same extent
JAR cells [5]; 10 pmol, 0-900 pmol cold folate, 30 min, 37° C.
  ability to compete with cold native folate for binding to the JAR cells: equally effective
JAR cells [5]; comparable test conditions, FIG. 1A
  binding to JAR cells compared with the radiolabeled control (^3H-folate): about half as effective
